Structures can show the parent of a compound that is named as a salt.
Columns and labels:
[1] = in vitro elution of lidocaine from TECOFLEX EG-93A polyurethane implants; type: physicochemical; settings: TECOFLEX EG-93A tubing, about 180 mg pure lidocaine without excipients, 300 mL 0.9% saline at 37° C, daily exchanges, up to 8 days; for release of drug from the implant (in vitro elution): HPLC
Description: (§1) The follow general procedure was followed for the manufacture of API-containing implants.
(§2) Sterilization was accomplished by gamma irradiation of the implants.
A total of about 180 mg pure (100%) lidocaine were loaded into the implant without any excipients (without any sorption enhancer or lubricant).

[2] = in vitro elution of raloxifene from TECOFLEX EG-80A polyurethane implants; type: physicochemical; settings: TECOFLEX EG-80A tubing, 88% API, 10% croscarmellose sodium, 2% stearic acid, about 250 mg raloxifene, 800 mL 0.9% saline at 37° C, weekly exchanges, HPLC, up to 20 weeks
Description: as §1, §2
The drug blend was 88% API, 10% sorption enhancer, and 2% lubricant. […] A total of about 250 mg raloxifene were loaded into the implant with 10% croscarmellose sodium and 2% stearic acid.

[3] = oral dosage form, target oral daily dose about 60 mg; cited from earlier work

| release of drug from the implant (in vitro elution) [2] | Structure (SMILES) | release of drug from the implant (in vitro elution) [1] | further results |
| --- | --- | --- | --- |
| – | CCN(CC)CC(=O)Nc1c(C)cccc1C [lidocaine free base] | readily released | in vitro elution rate from the implant [1]: more than 10 mg/day |
| – | CCN(CC)CC(=O)Nc1c(C)cccc1C [lidocaine hydrochloride] | No drug was released | release of drug from the implant (in vitro elution) ([1]; listed as lidocaine HCl): no drug was released |
| readily released | O=C(c1ccc(OCCN2CCCCC2)cc1)c1c(-c2ccc(O)cc2)sc2cc(O)ccc12 [raloxifene free base, [6-hydroxy-2-(4-hydroxyphenyl)-benzothiophen-3-yl]-[4-[2-(1-piperidyl)ethoxy]phenyl]-methanone] | – | – |
| No drug was released | O=C(c1ccc(OCCN2CCCCC2)cc1)c1c(-c2ccc(O)cc2)sc2cc(O)ccc12 [raloxifene hydrochloride] | – | release of drug from the implant (in vitro elution) ([2]; listed as raloxifene HCI): no drug was released; oral bioavailability [3]: ~2% |
